Structures are written as SMILES.

Broadly, the inhibition is the percentage by which the read-out fell short of the control. Read a low inhibition as a weak effect.

The target in one experiment is T1, hDGAT1 (Homo sapiens, UniProt O75907).
T1 construct: host or cells: Sf9 insect cells (baculovirus); microsomal preparation
T1 sequence (O75907 1-488): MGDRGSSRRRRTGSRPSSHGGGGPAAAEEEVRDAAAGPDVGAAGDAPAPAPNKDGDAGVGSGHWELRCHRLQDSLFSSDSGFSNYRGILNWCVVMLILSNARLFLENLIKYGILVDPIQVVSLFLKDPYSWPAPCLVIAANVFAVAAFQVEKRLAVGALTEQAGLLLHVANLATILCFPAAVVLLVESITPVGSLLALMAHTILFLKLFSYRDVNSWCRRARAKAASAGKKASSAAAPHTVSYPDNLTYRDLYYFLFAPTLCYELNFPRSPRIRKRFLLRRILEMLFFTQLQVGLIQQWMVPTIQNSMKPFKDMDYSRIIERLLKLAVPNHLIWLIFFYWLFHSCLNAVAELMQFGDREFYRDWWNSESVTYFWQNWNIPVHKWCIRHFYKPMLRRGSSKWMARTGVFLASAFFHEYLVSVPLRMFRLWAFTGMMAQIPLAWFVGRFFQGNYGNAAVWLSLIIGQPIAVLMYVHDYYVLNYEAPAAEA
Description: In-vitro DGAT1 assay (hDGAT1 microsomes from Sf9 cells, 14C oleoyl CoA, triglyceride formation). The format is biochemical. The note with it: At 1 μM. In a few lines:
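Compounds tested in duplicate at 10, 5 and 1 μM for 10 min at 37 °C. Reaction: Sf9-expressed hDGAT1 microsomes (2.5–10 μg), [14C]oleoyl-CoA plus 409.5–1638 μM dioleoylglycerol, pH 7.4 Tris-HCl with fatty-acid-free BSA. Radiolabelled triglyceride extracted into heptane and scintillation-counted.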
On to `CC(C)[C@H](NC(=O)c1cc(-c2ccc(NC(=O)Nc3ccccc3OC(F)(F)F)cc2)no1)C(=O)O` [Example 203, (S)-3-methyl-2-(3-(4-(3-(2-(trifluoromethoxy)phenyl)ureido)phenyl)isoxazole-5-carboxamido)butanoic acid], for which the inhibition at 1 µM was 75 to 100%.

On to `CC(C)[C@H](NC(=O)c1cc(-c2ccc(NC(=O)Nc3ccc(Cl)cc3Oc3ccccc3)cc2)no1)C(=O)O` [Example 201, (S)-2-(3-(4-(3-(4-Chloro-2-phenoxyphenyl)ureido)phenyl)isoxazole-5-carboxamido)-3-methylbutanoic acid], for which the inhibition at 1 µM was 75 to 100%. On the same count and under the same terms, the figure for `CC(C)[C@@H](NC(=O)c1cc(-c2ccc(NS(=O)(=O)c3c(F)cccc3F)cc2)no1)C(=O)O` [Example 317, (R)-2-(3-(4-(2,6-Difluorophenylsulfonamido)phenyl)isoxazole-5-carboxamido)-3-methylbutanoic acid] is 0 to 50%. As for `CC(C)[C@@H](NC(=O)c1cc(-c2ccc(NC(=O)Nc3cccc(C#N)c3)cc2)no1)C(=O)O` [Example 217, (R)-2-(3-(4-(3-(3-cyanophenyl)ureido)phenyl)isoxazole-5-carboxamido)-3-methylbutanoic acid], the inhibition at 1 µM is 50 to 75%. On the same count and under the same terms, the result for `COC(=O)[C@H](NC(=O)c1cc(-c2ccc(NS(=O)(=O)c3ccc(C(F)(F)F)cc3)cc2)no1)C(C)C` [Example 318, (R)-methyl 3-methyl-2-(3-(4-(4-(trifluoromethyl)phenylsulfonamido)phenyl)isoxazole-5-carboxamido)butanoate] reads 0 to 50%; that for `COC(=O)[C@@H](NC(=O)c1cc(-c2ccc(NC(=O)Nc3ccc(F)c(F)c3)cc2)no1)C(C)C` [Example 129, (S)-methyl 2-(3-(4-(3-(3,4-difluorophenyl)ureido)phenyl)isoxazole-5-carboxamido)-3-methylbutanoate], 50 to 75%; that for `CC(C)c1ccc(NC(=O)Nc2ccc(-c3cc(C(=O)N[C@H](C(=O)O)C(C)C)on3)cc2)cc1` [Example 228, (S)-2-(3-(4-(3-(4-Isopropylphenyl)ureido)phenyl)isoxazole-5-carboxamido)-3-methylbutanoic acid], 75 to 100%. On to `CC(C)[C@@H](N/C(=N/O)c1cc(-c2ccc(NC(=O)Nc3ccccc3F)cc2)no1)C(=O)O` [Example 226, (R,E)-2-(3-(4-(3-(2-Fluorophenyl)ureido)phenyl)-N′-hydroxyisoxazole-5-carboximidamido)-3-methylbutanoic acid], for which the inhibition at 1 µM fell in the range of 0 to 50%.

Still in this experiment, the particulars now being: At 5 μM.
The compound `COC(=O)C(NC(=O)c1cc(-c2ccc(NC(=O)NS(=O)(=O)c3ccccc3C)cc2)no1)C(C)C` (centres unmarked) [Example 263, Methyl 3-methyl-2-(3-(4-(3-(o-tolylsulfonyl)ureido)phenyl)isoxazole-5-carboxamido)butanoate] displayed an inhibition at 5 µM of 0 to 50%. Same read-out and setting: the result for `CC(C)C(NC(=O)c1cc(-c2ccc(NC(=O)Nc3ccc(C(F)(F)F)cc3)cc2)no1)C(=O)O` (centres unmarked) [Example 276, 3-Methyl-2-(3-(4-(3-(4-(trifluoromethyl)phenyl)ureido)phenyl)isoxazole-5-carboxamido)butanoic acid] reads 75 to 100%.

In turn, `COC(=O)[C@@H](NC(=O)c1nc(-c2ccc(NC(=O)Nc3ccc(C)cc3)cc2)no1)C(C)C` [Example 346, (S)-Methyl 3-methyl-2-(3-(4-(3-p-tolylureido)phenyl)-1,2,4-oxadiazole-5-carboxamido)butanoate] came in with an inhibition at 5 µM of 50 to 75%.

As to `COC(=O)C(NC(=O)c1cc(-c2ccc(NC(=O)Nc3ccccc3F)cc2C)no1)C(C)C` (centres unmarked) [Example 135, Methyl 2-(3-(4-(3-(2-fluorophenyl)ureido)-2-methylphenyl)isoxazole-5-carboxamido)-3-methylbutanoate], the inhibition at 5 µM was in the range of 0 to 50%.

The experiment is the same for the next values; noted with them: At 10 μM.
Compound `CC(C)[C@@H](NC(=O)c1cc(-c2ccc(Nc3nc4ccc(F)cc4s3)cc2)no1)C(=O)O` [Example 42, (R)-2-({3-[4-(6-Fluoro-benzothiazol-2-ylamino)-phenyl]-isoxazole-5-carbonyl}-amino)-3-methyl-butyric acid] returned an inhibition at 10 µM of 50 to 75%. `O=C(NC1(C(=O)O)CCCC1)c1cc(-c2ccc(Nc3nc4ccc(F)cc4s3)cc2)no1` [Example 63, 1-({3-[4-(6-Fluoro-benzothiazol-2-ylamino)-phenyl]-isoxazole-5-carbonyl}-amino)-cyclopentanecarboxylic acid] yielded an inhibition at 10 µM of 0 to 50%. Still for that read-out and setting: the result for `COC[C@H](NC(=O)c1cc(-c2cccc(Nc3nc4ccc(F)cc4s3)c2)no1)C(=O)OC` [Example 28, (S)-2-({3-[3-(6-Fluoro-benzothiazol-2-ylamino)-phenyl]-isoxazole-5-carbonyl}-amino)-3-methoxy-propionic acid methyl ester] reads 0 to 50%; that for `CC(C)C(NC(=O)c1cc(-c2ccc(NC(=O)Nc3ccc(F)cc3F)c(F)c2)no1)C(=O)O` (centres unmarked) [Example 150, 2-(3-(4-(3-(2,4-Difluorophenyl)ureido)-3-fluorophenyl)isoxazole-5-carboxamido)-3-methylbutanoic acid], 75 to 100%; that for `O=C(O)C1(NC(=NO)c2cc(-c3ccc(Nc4nc5ccc(F)cc5s4)cc3)no2)CCCC1` [Example 66, 1-({3-[4-(6-Fluoro-benzothiazol-2-ylamino)-phenyl]-N-hydroxy-isoxazole-5-carboximidoyl}-amino)-cyclopentanecarboxylic acid], 0 to 50%. The compound `COC(=O)[C@H](CC(C)C)NC(=O)c1onc(-c2ccc(Nc3nc4ccc(F)cc4s3)cc2)c1-c1ccccc1` [Example 94, (S)-2-({3-[4-(6-Fluoro-benzothiazol-2-ylamino)-phenyl]-4-phenyl-isoxazole-5-carbonyl}-amino)-4-methyl-pentanoic acid methyl ester] came in with an inhibition at 10 µM of 0 to 50%.

Regarding `COC(=O)C(NC(=O)c1cc(-c2ccc(NC(=O)Nc3ccccc3F)c(F)c2)no1)C(C)C` (centres unmarked) [Example 147, Methyl 2-(3-(3-fluoro-4-(3-(2-fluorophenyl)ureido)phenyl)isoxazole-5-carboxamido)-3-methylbutanoate], the inhibition at 10 µM was 50 to 75%. On the same count and under the same terms, the result for `O=C(O)c1cc(-c2cccc(Nc3nc4ccc(F)cc4s3)c2)no1` [Example 21, 3-[3-(6-Fluoro-benzothiazol-2-ylamino)-phenyl]-isoxazole-5-carboxylic acid] reads 0 to 50%; that for `COC(=O)[C@@H](NC(=O)c1cc(-c2ccc(NC(=O)Nc3ccccc3)cc2)no1)C(C)C` [Example 76, (S)-3-Methyl-2-({3-[4-(3-phenyl-ureido)-phenyl]-isoxazole-5-carbonyl}-amino)-butyric acid methyl ester], 50 to 75%; that for `COC[C@H](NC(=O)c1cc(-c2ccc(Nc3nc4ccc(F)cc4s3)cc2)no1)C(=O)OC` [Example 12, (S)-2-({3-[4-(6-Fluoro-benzothiazol-2-ylamino)-phenyl]-isoxazole-5-carbonyl}-amino)-3-methoxy-propionic acid methyl ester], 50 to 75%. Still for that read-out and setting: the figure for `COC(=O)[C@@H](NC(=S)c1cc(-c2ccc(Nc3nc4ccc(F)cc4s3)cc2)no1)C(C)C` [Example 6, (S)-2-({3-[4-(6-Fluoro-benzothiazol-2-ylamino)-phenyl]-isoxazole-5-carbothioyl}-amino)-3-methyl-butyric acid methyl ester] is 0 to 50%; for `CC(C)(NC(=O)c1cc(-c2ccc(NC(=O)Nc3ccc(F)cc3)cc2)no1)C(=O)O` [Example 118, 2-(3-(4-(3-(4-fluorophenyl)ureido)phenyl)isoxazole-5-carboxamido)-2-methylpropanoic acid] it is 50 to 75%; for `O=C(O)CNC(=O)c1cc(-c2ccc(Nc3nc4ccc(F)cc4s3)cc2)no1` [Example 59, ({3-[4-(6-Fluoro-benzothiazol-2-ylamino)-phenyl]-isoxazole-5-carbonyl}-amino)-acetic acid] it is 0 to 50%. `CC(C)C[C@H](NC(=S)c1cc(-c2ccc(Nc3nc4ccc(F)cc4s3)cc2)no1)C(=O)O` [Example 49, (S)-2-({3-[4-(6-Fluoro-benzothiazol-2-ylamino)-phenyl]-isoxazole-5-carbothioyl}-amino)-4-methyl-pentanoic acid] had an inhibition at 10 µM of 50 to 75%. Same read-out and setting: the result for `COC[C@H](NC(=NO)c1cc(-c2ccc(Nc3nc4ccc(F)cc4s3)cc2)no1)C(=O)OC` [Example 16, (S)-2-({3-[4-(6-Fluoro-benzothiazol-2-ylamino)-phenyl]-N-hydroxy-isoxazole-5-carboximidoyl}-amino)-3-methoxy-propionic acid methyl ester] reads 50 to 75%.

As to `COC(=O)[C@H](NC(=NO)c1cc(-c2ccc(Nc3nc4ccc(F)cc4s3)cc2)no1)C(C)C` [Example 40, (R)-2-({3-[4-(6-Fluoro-benzothiazol-2-ylamino)-phenyl]-N-hydroxy-isoxazole-5-carboximidoyl}-amino)-3-methyl-butyric acid methyl ester], the inhibition at 10 µM is 0 to 50%. Still for that read-out and setting: the figure for `COC(=O)C(C)NC(=O)c1cc(-c2ccc(NC(=O)Nc3c(F)cccc3F)c(C)c2)no1` (centres unmarked) [Example 101, Methyl 2-(3-(4-(3-(2,6-difluorophenyl)ureido)-3-methylphenyl)isoxazole-5-carboxamido)propanoate] is 0 to 50%.

(Values after patent publication US8835428B2, “Diacylglycerol acyltransferase inhibitors” (Piramal Enterprises Limited, priority 2008, dated 2014).)
